From patent US9096639B2, “17-hydroxy-17-pentafluorethyl-estra-4,9(10)-dien-11-acyloxyalkylene phenyl derivatives, methods for the production thereof and use thereof for treating diseases” (Bayer Intellectual Property GmbH, priority 2009, dated 2015)

How the values were obtained:
[1] = Determination of hydrolytic stability (5:1 dioxane/buffer, HPLC); assay type: physicochemical; conditions: 5:1 dioxane/buffer solution, test ended after 24 or 192 hours, read-out: Hydrolytic stability t1/2
Protocol: The ester to be analyzed was dissolved in each case in a 5:1 mixture of dioxane and buffer solution (pH 1.2, pH 5.0 or pH 8.0) at 23° C. At different times, the content of ester and hydrolysis products (8S,11R,13S,14S,1 7S)-17-hydroxy-11-[4-((R)-1-hydroxyethyl)phenyl]-13-methyl-17-pentafluoroethyl-1,2,6,7,8,11,12,13,14,15,16,17-dodecahydrocyclopenta[a]phenanthren-3-one and/or (8S,11R,13S,14S,17S)-17-hydroxy-11-[4-((S)-1-hydroxyethyl)phenyl]-1 3-methyl-17-pentafluoroethyl-1,2,6,7,8,11,12,13,14,15,16,17-dodecahydrocyclopenta[a]phenanthren-3-one was determined by HPLC. The test was ended after 24 hours or 192 hours.

[2] = Determination of stability in human plasma; assay type: in vitro ADME
Protocol: (§1) A stock solution of 1.0 mg of the substance to be tested in a 9:1 mixture of acetonitrile and dimethyl sulphoxide was prepared. 20 μl of this stock solution were added at 37° C. to 1 ml of human plasma or rat plasma. To determine the content, 100 μl samples were each taken at different times. The enzyme activity was blocked by adding 300 μl of acetonitrile, the samples were centrifuged at 5000 rpm over 10 minutes and, in the supernatant, the content of ester and hydrolysis products (8S,11R,13S,14S,17S)-17-hydroxy-11-[4-((R)-1-hydroxyethyl)phenyl]-1 3-methyl-17-pentafluoroethyl-1,2,6,7,8,11,12,13,14,15,16,17-dodecahydrocyclopenta[a]phenanthren-3-one and/or (8S,11R,13S,14S,17S)-17-hydroxy-11-[4-((S)-1-hydroxyethyl)phenyl]-13-methyl-17-pentafluoroethyl-1,2,6,7,8,11,12,13,14,15,16,17-dodecahydrocyclopenta[a]phenanthrene-3-one was determined by HPLC. The concentration-time curves were used to calculate the degradation kinetics. The stability of the substance tested was reported as the half-life.

[3] = Determination of stability in rat plasma; assay type: in vitro ADME; conditions: 37° C., read-out: Stability t1/2 in rat plasma (converted)
Protocol: as §1

[4] = molecular target: T1, human progesterone receptor A (Homo sapiens, UniProt P06401); assay: Progesterone receptor transactivation test in stably transfected SK-N-MC cells (PR-A, MMTV-LUC reporter); assay type: cell-based; conditions: 0.1 nmol/l promegestone, 24 hours, read-out: PR-A IC50 (antagonistic potency)
T1 construct: expressed in transfected cells; host or cells: SK-N-MC human neuroblastoma cells, stably transfected with pRChPR-A-neo and pMMTV-LUC
T1 sequence (P06401 1-769 isoform P06401-2): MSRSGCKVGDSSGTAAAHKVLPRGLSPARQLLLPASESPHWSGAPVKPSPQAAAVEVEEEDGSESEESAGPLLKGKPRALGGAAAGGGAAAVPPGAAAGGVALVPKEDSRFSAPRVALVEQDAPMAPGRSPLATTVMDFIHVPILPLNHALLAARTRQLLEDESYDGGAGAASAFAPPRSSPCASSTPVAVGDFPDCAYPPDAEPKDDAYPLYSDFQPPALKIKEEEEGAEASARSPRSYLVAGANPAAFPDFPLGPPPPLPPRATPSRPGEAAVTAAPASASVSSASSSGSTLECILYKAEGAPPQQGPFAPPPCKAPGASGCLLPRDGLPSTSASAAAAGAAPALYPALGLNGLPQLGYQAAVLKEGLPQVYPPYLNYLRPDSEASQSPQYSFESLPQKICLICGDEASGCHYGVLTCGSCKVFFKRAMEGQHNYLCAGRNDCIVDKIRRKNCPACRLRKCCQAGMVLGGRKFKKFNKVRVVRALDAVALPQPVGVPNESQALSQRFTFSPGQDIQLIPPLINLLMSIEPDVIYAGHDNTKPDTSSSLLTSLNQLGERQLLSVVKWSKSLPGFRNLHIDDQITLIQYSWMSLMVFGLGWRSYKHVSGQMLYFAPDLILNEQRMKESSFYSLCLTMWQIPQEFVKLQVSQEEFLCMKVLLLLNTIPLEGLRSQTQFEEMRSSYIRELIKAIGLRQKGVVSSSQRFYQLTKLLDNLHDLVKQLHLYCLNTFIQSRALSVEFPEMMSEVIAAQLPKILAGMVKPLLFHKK
Protocol: Progesterone receptor-antagonistic action in stable transfectants of human neuroblastoma cells (SK-N-MC cells) with the human progesterone A or progesterone B receptor and an MN-LUC reporter construct SK-N-MC cells (human neuroblastoma cells) which have been stably transfected with plasmids expressing the human progesterone receptor B (pRChPR-B-neo) or the human progesterone receptor A (pRChPR-A-neo) and a reporter construct (pMMTV-LUC) were incubated for 24 hours either in the absence (negative control) or in the presence of ascending amounts of the particular test compound (0.01 nmol/l, 0.1 nmol/l, 1 […], 100 nmol/l and […]), in order to determine the agonistic efficacy. As a positive control of the reporter gene induction, the cells were treated with the synthetic gestagen promegestone (0.01 nmol/l, 0.1 nmol/l, 1 nmol/l, 10 nmol/l, 100 nmol/l and […]). To determine the antagonistic activity, the cells were treated with 0.1 nmol/l promegestone and additionally with ascending amounts of the particular test compound (0.01 nmol/l, 0.1 nmol/l, 1 nmol/l, 10 nmol/l, 100 nmol/l and […]). The activity of the reporter gene LUC (LUC=luciferase) was determined in the cell lysates and measured as RLU (relative light units). All measurements are reported as % efficacy and as EC50 and IC50 concentrations.

[5] = 37° C., read-out: Stability t1/2 in human plasma (converted)
[6] = method of working example 19, summary statement in description, read-out: half-life in human plasma

Row | SMILES | half-life ([1]; pH = 1.2, 23° C.) | half-life ([1]; pH = 5.0, 23° C.) | half-life ([1]; pH = 8.0, 23° C.) | half-life [2, 5] | half-life [2, 6] | half-life [3] | IC50 [4]
1 | CC(OC(=O)[C@@H](C)NC(=O)OC(C)(C)C)c1ccc([C@H]2C[C@@]3(C)[C@@H](CC[C@@]3(O)C(F)(F)C(F)(F)F)[C@@H]3CCC4=CC(=O)CCC4=C32)cc1 (mixture of isomers) [Example 6, (R)-2-tert-Butoxycarbonylaminopropionic acid (RS)-1-[4-((8S,11R,13S,-14S,17S)-17-hydroxy-13-methyl-3-oxo-17-pentafluoroethyl-2,3,6,7,8,11,12,13,14,15,16,17-dodecahydro-1H-cyclopenta[a]phenanthren-11-yl)phenyl]ethyl ester] | > 24 h | > 24 h | > 24 h | 491 h | > 100 h | 43.9 h | 0.1 nM
2 | CC(C)C(=O)OC(C)c1ccc([C@H]2C[C@@]3(C)C(CC[C@@]3(O)C(F)(F)C(F)(F)F)C3CCC4=CC(=O)CCC4=C32)cc1 (mixture of isomers) [Example 2, Isobutyric acid (RS)-1-[4-((8S,11R,13S,14S,17S)-17-hydroxy-13-methyl-3-oxo-17-pentafluoroethyl-2,3,6,7,8,11,12,13,14,15,16,17-dodecahydro-1H-cyclopenta[a]-phenanthren-11-yl)phenyl]ethyl ester] | > 24 h | > 24 h | > 24 h | 803 h | > 100 h | 33.4 h | 0.1 nM
3 | CC(OC(=O)[C@@H](NC(=O)OC(C)(C)C)C(C)C)c1ccc([C@H]2C[C@@]3(C)C(CC[C@@]3(O)C(F)(F)C(F)(F)F)C3CCC4=CC(=O)CCC4=C32)cc1 (mixture of isomers) [Example 5, (S)-2-tert-Butoxycarbonylamino-3-methylbutyric acid (RS)-1-[4-((8S,11R,-13S,14S,17S)-17-hydroxy-13-methyl-3-oxo-17-pentafluoroethyl-2,3,6,7,8,11,12,13,14,15,-16,17-dodecahydro-1H-cyclopenta[a]phenanthren-11-yl)phenyl]ethyl ester] | > 192 h | > 192 h | > 192 h | > 1000 h | > 100 h | 156 h | 0.3 nM
4 | CC(OC(=O)[C@H](C)NC(=O)OC(C)(C)C)c1ccc([C@H]2C[C@@]3(C)C(CC[C@@]3(O)C(F)(F)C(F)(F)F)C3CCC4=CC(=O)CCC4=C32)cc1 (mixture of isomers) [Example 7, (S)-2-tert-Butoxycarbonylaminopropionic acid (RS)-1-[4-((8S,11R,13S,-14S,17S)-17-hydroxy-13-methyl-3-oxo-17-pentafluoroethyl-2,3,6,7,8,11,12,13,14,15,16,17-dodecahydro-1H-cyclopenta[a]phenanthren-11-yl)phenyl]ethyl ester] | > 24 h | > 24 h | > 24 h | > 1000 h | > 100 h | 3.1 h | 0.14 nM

Continued, values first:

Row | half-life ([1]; pH = 1.2, 23° C.) | half-life ([1]; pH = 5.0, 23° C.) | half-life ([1]; pH = 8.0, 23° C.) | half-life [2, 5] | half-life [2, 6] | half-life [3] | IC50 [4] | SMILES
5 | > 24 h | > 24 h | > 24 h | 609 h | > 100 h | 57.5 h | 0.07 nM | CC(=O)O[C@H](C)c1ccc([C@H]2C[C@@]3(C)C(CC[C@@]3(O)C(F)(F)C(F)(F)F)C3CCC4=CC(=O)CCC4=C32)cc1 (mixture of isomers) [Example 1, acetic acid (RS)-1-[4-((8S,11R,13S,14S,17S)-17-hydroxy-13-methyl-3-oxo-17-pentafluoroethyl-2,3,6,7,8,11,12,13,14,15,16,17-dodecahydro-1H-cyclopenta[a]phenanthren-11-yl)phenyl]ethyl ester]
6 | > 24 h | > 24 h | > 24 h | > 1000 h | > 100 h | 89 h | 0.21 nM | CC(C)CC(=O)OC(C)c1ccc([C@H]2C[C@@]3(C)C(CC[C@@]3(O)C(F)(F)C(F)(F)F)C3CCC4=CC(=O)CCC4=C32)cc1 (mixture of isomers) [Example 3, 3-Methylbutyric acid (RS)-1-[4-((8S,11R,13S,14S,17S)-17-hydroxy-13-methyl-3-oxo-17-pentafluoroethyl-2,3,6,7,8,11,12,13,14,15,16,17-dodecahydro-1H-cyclopenta[a]phenanthren-11-yl)phenyl]ethyl ester]
7 | > 24 h | > 24 h | > 24 h | > 1000 h | > 100 h | > 1000 h | 0.2 nM | CC(OC(=O)CC(C)(C)C)c1ccc([C@H]2C[C@@]3(C)C(CC[C@@]3(O)C(F)(F)C(F)(F)F)C3CCC4=CC(=O)CCC4=C32)cc1 (mixture of isomers) [Example 4, 3,3-Dimethylbutyric acid (RS)-1-[4-((8S,11R,13S,14S,17S)-17-hydroxy-13-methyl-3-oxo-17-pentafluoroethyl-2,3,6,7,8,11,12,13,14,15,16,17-dodecahydro-1H-cyclopenta[a]phenanthren-11-yl)phenyl]ethyl ester]
